Experimental data reported in patent publication US20030181426A1, “Compositions and methods for treating pain using cyclooxygenase-1 inhibitors” (priority 2002, published 2003).
Entries after “also recorded” stand apart in the source; their conditions may differ. Where two headings read alike, the source gives them in different places.

Experiments:
COX-1 and COX-2 = settings: as known in the art / Warner, 1999; cited from earlier work
[1] = system: acetic acid-induced writhing response; settings: mice; COX-1 sensitive pain models; Ochi et al. 2000; cited from earlier work
[2] = system: locomotor activity after laparotomy; experiment: Post-laparotomy locomotor activity model; type: in vivo, rats
tactile allodynia [3] = experiment: Partial sciatic nerve ligation (PSNL) tactile allodynia, i.t. COX inhibitors; type: in vivo, Sprague-Dawley rats
Description: A Sprague-Dawley rats (Harlan Industries, Indianapolis, Ind., USA), weighing 200-250 g, were used in this study. All animal surgical procedures were in conformity with the Wake Forest University guidelines on the ethical use of animals and studies were approved by the Animal Care and Use Committee. Animals were implanted with intrathecal catheters according to the method described previously. (Yaksh TL, 1976). Briefly, under halothane anesthesia (2-4% in oxygen/air), animals were placed prone in a stereotaxic frame and a small incision was made at the back of the neck. A small puncture was made in the atlanto-occipital membrane of the cistema magna and a polyethylene catheter (PE-10, 7.5 cm) was inserted so that the caudal tip reached the lumbar enlargement of the spinal cord. The rostral end of the catheter was exteriorized at the top of the head and the wound was closed with sutures. Animals were allowed 4-5 days to recover from the surgery and those displaying signs of motor dysfunction (fore limb or hind limb paralysis) were excluded from the study. Rats were anesthetized with 2-4% halothane in oxygen-air. For partial […] nerve ligation (PSNL), the left sciatic nerve was exposed at the high thigh level and one-third to one-half of the nerve was ligated with silk suture (size 6) as previously described (Shir et al., 1991). Animals were maintained after surgery with ad libitum food and water on a 12-h light/dark cycle. All rats were allowed to recover for 4 weeks after PSNL. By then, tactile allodynia was well established in the ipsilateral hindpaw.

tactile allodynia [4] = experiment: PSNL tactile allodynia, lidocaine; type: in vivo, male Sprague-Dawley rats
tactile allodynia [5] = experiment: L5 and L6 spinal nerve ligation (SNL) tactile allodynia, lidocaine and ketorolac; type: in vivo, male Sprague-Dawley rats
[6] = rat, in vivo, ip
[7] = Hind limb weakness or paralysis after lidocaine injection
nociceptive responses [8] = settings: normal and monoarthritic rats; Mazario et al. 2001; cited from earlier work
nociceptive responses [9] = settings: mice with paw inflammation; Mazario et al. 2001; cited from earlier work
noxious heat = experiment: Latency to paw withdrawal from noxious heat; type: in vivo, male Sprague-Dawley rats; settings: drug alone; rats with intrathecal catheter
Experimental: After Animal Care and Use Committee approval, adult male Sprague-Dawley rats (240-330 g; Harlan, Indianapolis, Ind.) were anesthetized with halothane. A catheter was inserted, as previously described, through a small nick in the cisterna magnum membrane into the intrathecal space and advanced 7.5 cm such that its tip lay in the lumbar intrathecal space. […] After catheter implantation, rats were housed individually with a 12 h/12 h light/dark cycle and an unlimited supply of water and food. Experiments occurred at least 6 days after surgery.

inflammation = settings: rat animal model; compared to indomethancin; Mansferrer et al. 1994; cited from earlier work
[10] = IV 3 mg/kg, 24 hr after laparotomy, 3 mg/kg
[11] = 300 μg intrathecal, 3 days after injection

Structure (SMILES): COc1ccc2cc(CC(=O)O)ccc2c1 [6-methoxy-2-napthyl acetic acid]
- preference in inhibition of COX-1 and COX-2 (COX-1 and COX-2): preferentially inhibit COX-2

Structure (SMILES): COc1ccc(-c2nc(C(=O)N3CCN(C)CC3)sc2-c2ccc(OC)cc2)cc1 [FR122047]
- analgesic effect against acetic acid-induced writhing response [1]: dose-dependent analgesic effect

Structure (SMILES): CN1CC[C@]23c4c5ccc(O)c4O[C@H]2[C@@H](O)C=C[C@H]3[C@H]1C5 [morphine]
- ambulatory activity in sham animals ([2]; 1 mg/kg): stimulates ambulatory activity
- effect of laparotomy on ambulatory activity [2, 10]: blocked; also recorded: reversed
- effect of laparotomy on vertical activity [2, 10]: not vertical counts; also recorded: not vertical activity

Structure (SMILES): CN1C(C(=O)Nc2ccccn2)=C(O)c2ccccc2S1(=O)=O [piroxicam]
- well established tactile allodynia in either hindpaw (tactile allodynia [3]; 4 weeks after PSNL): failed to attenuate

Structure (SMILES): CCN(CC)CC(=O)Nc1c(C)cccc1C [lidocaine]
- tactile allodynia (tactile allodynia [4]; 300 μg intraperitoneal, four PSNL rats): no attenuation or reversal of tactile allodynia was observed
- antiallodynic effect (tactile allodynia [4]; 300 μg intrathecal, 1 week after injection): disappeared
- effect on the ipsilateral hind paw (tactile allodynia [4]; [11]): antinociceptive effect
- reversal of tactile allodynia (tactile allodynia [4]; [11]): also observed
- tactile allodynia in both hind paws (tactile allodynia [4]; 300 μg intrathecal, two weeks after PSNL, two hours following injection): significantly reversed
- tactile allodynia, ipsilateral hind paw (tactile allodynia [5]; 100 μg intrathecal, four weeks following SNL, two hours and 2 days following injection): markedly reversed to the prelesion level
- withdrawal threshold in the hind paw (tactile allodynia [5]; 100 μg intrathecal, three days after injection): not significantly lower than the prelesion baseline value
- tactile allodynia, ipsilateral hind paw (tactile allodynia [5]; 200 μg intrathecal, four weeks following SNL, two hours and 2 days following injection): markedly reversed to the prelesion level
- tactile allodynia, ipsilateral hind paw (tactile allodynia [5]; 200 μg intrathecal, three days after injection): reappeared
- tactile allodynia, ipsilateral hind paw (tactile allodynia [5]; 300 μg intrathecal, four weeks following SNL, two hours and 2 days following injection): markedly reversed to the prelesion level
- tactile allodynia, ipsilateral hind paw (tactile allodynia [5]; 300 μg intrathecal, three days after injection): reappeared
- behavior [6]: no abnormal behavior
- transient weakness or paralysis of both hind limbs, incidence ([7]; 100 μg intrathecal): completely absent
- transient weakness or paralysis of both hind limbs, incidence ([7]; 200 μg intrathecal): one third of rats
- transient weakness or paralysis of both hind limbs, incidence ([7]; 300 μg intrathecal): almost all rats
- duration of transient weakness or paralysis ([7]; intrathecal lidocaine): 10 to 20 min

Structure (SMILES): CC(C)Cc1ccc(C(C)C(=O)O)cc1 (stereo not shown) [ibuprofen]
- preference in inhibition of COX-1 and COX-2 (COX-1 and COX-2): no or small preferences in inhibition of COX-1 and COX-2

Structure (SMILES): COc1ccc2c(c1)c(CC(=O)O)c(C)n2C(=O)c1ccc(Cl)cc1 [indomethancin]
- preference in inhibition of COX-1 and COX-2 (COX-1 and COX-2): preferentially inhibit COX-1

Structure (SMILES): CS(=O)(=O)c1ccc(C2=C(c3ccccc3)C(=O)OC2)cc1 [rofecoxib]
- reduction of nociceptive responses (nociceptive responses [8]): no effect
- reduction of nociceptive responses (nociceptive responses [9]): no effect

Structure (SMILES): CC(C(=O)O)c1ccc(-c2ccccc2)c(F)c1 (stereo not shown) [flubiprofen]
- preference in inhibition of COX-1 and COX-2 (COX-1 and COX-2): preferentially inhibit COX-1

Structure (SMILES): Clc1cccc(Cl)c1N=C1NCCN1 [clonidine]
- antinociception (latency to paw withdrawal from noxious heat) (noxious heat): produced antinociception

Structure (SMILES): CS(=O)(=O)Nc1ccc([N+](=O)[O-])cc1Oc1ccccc1 [nimesulide]
- preference in inhibition of COX-1 and COX-2 (COX-1 and COX-2): preferentially inhibit COX-2

Structure (SMILES): CS(=O)(=O)Nc1ccc([N+](=O)[O-])cc1OC1CCCCC1 [NS-398]
- withdrawal threshold, ipsilateral hindpaw (tactile allodynia [3]; 2 and 4 h after injection): reversed to pre-lesion baseline level
- duration of reversal of withdrawal threshold (tactile allodynia [3]; 4 weeks after PSNL): 24 h
- withdrawal threshold, ipsilateral hindpaw (tactile allodynia [3]; 48 h post-injection): returned to pre-injection level
- anti-inflammatory and ulcerogenic effect (inflammation): anti-inflammatory but not ulcerogenic
- analgesic effect against acetic acid-induced writhing response [1]: had no effect
